The results in this text go back to paper PMC12350170, “Structural basis for the synergistic assembly of the snRNA export complex” (Nature Structural & Molecular Biology, 2025).

Molecules are shown by their SMILES.

What all share (format): binding
For assay [1], the target named is T1, Ran (RanGTP) in the snRNA export complex with CRM1, PHAX, CBC (Homo sapiens, UniProt P62826, Q69L).
T1 construct: Ran Q69L as His-tag fusion from E. coli, loaded with GTP; His-CRM1; CK2-phosphorylated full-length PHAX; CBP80ΔNLS–CBP20; capped 14-nt RNA; with Exportin-1; Phosphorylated adapter RNA export protein
Kind of assay: cryo-EM structure of the complex. Particulars: Mg2+ present; Ran nucleotide site; complex with CRM1, phosphorylated PHAX, CBC and capped RNA.

Assay [2] concerns the target T2, CBC (CBP80ΔNLS–CBP20) (Homo sapiens, UniProt P52298).
T2 construct: gene NCBP2; heterodimer; CBP80ΔNLS (lacks N-terminal 19 residues) from High Five insect cells; CBP20 as His-GST fusion from E. coli, tag cleaved by TEV
T2 sequence (P52298 2-156): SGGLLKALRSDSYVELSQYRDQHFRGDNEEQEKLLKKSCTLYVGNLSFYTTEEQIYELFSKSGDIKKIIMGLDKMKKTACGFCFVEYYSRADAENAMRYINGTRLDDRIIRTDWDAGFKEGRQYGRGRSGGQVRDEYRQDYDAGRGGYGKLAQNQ
T2 sequence (Q09161 20-790 partner): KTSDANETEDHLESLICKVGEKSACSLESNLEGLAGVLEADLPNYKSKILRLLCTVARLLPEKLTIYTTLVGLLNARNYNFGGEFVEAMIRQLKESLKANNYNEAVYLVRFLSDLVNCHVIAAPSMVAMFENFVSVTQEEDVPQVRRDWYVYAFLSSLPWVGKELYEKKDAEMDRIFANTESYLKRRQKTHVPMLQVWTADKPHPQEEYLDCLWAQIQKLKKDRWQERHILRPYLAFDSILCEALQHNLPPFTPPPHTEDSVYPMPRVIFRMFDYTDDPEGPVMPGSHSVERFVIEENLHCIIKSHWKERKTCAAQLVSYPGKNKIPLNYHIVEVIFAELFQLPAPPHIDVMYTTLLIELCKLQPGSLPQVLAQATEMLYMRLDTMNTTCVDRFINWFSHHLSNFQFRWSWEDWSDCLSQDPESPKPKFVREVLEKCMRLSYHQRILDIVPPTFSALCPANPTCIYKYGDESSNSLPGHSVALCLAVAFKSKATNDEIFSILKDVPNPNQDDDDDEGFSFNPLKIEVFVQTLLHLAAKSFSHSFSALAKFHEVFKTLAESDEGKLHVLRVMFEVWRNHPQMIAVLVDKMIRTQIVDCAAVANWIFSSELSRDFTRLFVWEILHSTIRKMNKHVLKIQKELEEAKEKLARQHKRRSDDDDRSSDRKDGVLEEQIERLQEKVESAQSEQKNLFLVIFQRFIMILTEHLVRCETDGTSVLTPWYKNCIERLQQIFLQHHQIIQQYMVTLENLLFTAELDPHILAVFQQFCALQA
Briefly: isothermal titration calorimetry. (In general: In ITC the heat of successive injections is recorded.)

Assay [3] concerns the target T3, CBC in complex with PHAX^103–196 (Homo sapiens, UniProt P52298).
T3 construct: gene NCBP2; CBC (CBP80ΔNLS lacking N-terminal 19 residues; CBP20, tag cleaved) plus PHAX residues 103-196 made as His-MBP fusion in E. coli, not phosphorylated; Phosphorylated adapter RNA export protein
Briefly: isothermal titration calorimetry.

T3 sequence (Q9H814 103-196 partner, one chain of several): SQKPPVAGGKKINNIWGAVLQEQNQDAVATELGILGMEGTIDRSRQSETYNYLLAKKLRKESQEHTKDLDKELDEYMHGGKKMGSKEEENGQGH

Turning to `Nc1nc2c(ncn2[C@@H]2O[C@H](COP(=O)(O)OP(=O)(O)OP(=O)(O)O)[C@@H](O)[C@H]2O)c(=O)[nH]1` [GTP], the “cryo-EM structure of the complex” value in assay [1] is “the catalytic mutant of Ran (Q69L) bound to GTP”.

For orientation: Kd means the equilibrium constant for the complex coming apart. Read a low Kd as tighter binding. In assay [2], `C[n+]1cn([C@@H]2O[C@H](COP(=O)(O)OP(=O)(O)OP(=O)(O)O)[C@@H](O)[C@H]2O)c2nc(N)[nH]c(=O)c21` [m^7GTP] gave a Kd of 300 nM.

Regarding `C[n+]1cn([C@@H]2O[C@H](COP(=O)(O)OP(=O)(O)OP(=O)(O)OC[C@H]3O[C@@H](n4cnc5c(=O)[nH]c(N)nc54)[C@H](O)[C@@H]3O)[C@@H](O)[C@H]2O)c2nc(N)[nH]c(=O)c21` [m^7GpppG], the dissociation constant Kd in assay [2] came to 96 nM; in assay [3] it was 100 nM.
